Laboratory results reported in patent US20260210948A1, “FLUORESCENCE-BASED ASSAY FOR IDENTIFICATION OF PROTAC LIGANDS FOR HECT-TYPE E3 LIGASES” (Purdue Research Foundation, priority 2022, published 2026).

Experiments:
[1] = test system: Rsp5; assay: Iodoacetamide inhibition assay, fluorescence polarization; type: biochemical, yeast (S. cerevisiae); details: Rsp5 incubated with iodoacetamide 12.5-500 μM for 1 hour
Experimental: Inhibition assays were conducted by first incubating 0.5 μm Rsp5/NEDD4L-Rsp5HYBRID with varying concentration of iodoacetamide (12.5-500 μM) for 1 hour in the reaction buffer (50 mM Tris pH 7.4, 100 mM NaCl, 1 mg/ml BSA). Fluorescence polarization was then measured after adding 0.25 μm E1 enzyme, 0.5 μm UbcH7, 100 μm Ub and 10 μm fluorescein-labeled peptide to the reaction well. The Z-factor (Z′) for the assay was calculated using eight replicates of the positive control (no iodoacetamide addition) and negative control (500 μM iodoacetamide addition). The initial slopes of each of the 16 reactions were calculated, followed by calculation of the positive control and negative control means (μ_+ and μ_−) and standard deviations (σ_+ and σ_−). The mean and standard deviation values were then used to calculate the Z-factor using the following formula (II):
(§1) All assays were carried out at least in triplicate, at a final reaction volume of 100 μL, and utilizing Grenier 96 well plates (Product no. 655097). Fluorescence polarization was measured using a Synergy H4 Plate Reader (BioTek) using 485 nm excitation and 528 nm emission filters.
An iodoacetamide inhibition assay to mimic peptide displacement conditions was performed to test robustness and reproducibility. […]

[2] = test system: Rsp5; assay: Peptide-ubiquitination fluorescence polarization assay with Rsp5; type: biochemical, yeast (S. cerevisiae); details: Uba1, UbcH7, Rsp5 lacking the C2 domain, ATP and Ub; λex=485 nm; λem=528 nm
Experimental: Assays were performed by mixing […] enzyme, 0.5 μm UbcH7, 0.5 μm Rsp5/NEDD4L-Rsp5HYBRID, 100 μM Ub and 10 μM fluorescein-labeled peptide in (50 mM Tris pH 7.4, 100 mM NaCl, 1 mg/ml BSA) buffer. Reaction mixtures were left to equilibrate at room temperature for 10 minutes before taking measurements. Reactions were then started by adding 100 mM ATP. A sample of this reaction was also utilized for SDS-PAGE gel electrophoresis.
as §1
Target sequence in this assay (P39940 229-809 limits assumed): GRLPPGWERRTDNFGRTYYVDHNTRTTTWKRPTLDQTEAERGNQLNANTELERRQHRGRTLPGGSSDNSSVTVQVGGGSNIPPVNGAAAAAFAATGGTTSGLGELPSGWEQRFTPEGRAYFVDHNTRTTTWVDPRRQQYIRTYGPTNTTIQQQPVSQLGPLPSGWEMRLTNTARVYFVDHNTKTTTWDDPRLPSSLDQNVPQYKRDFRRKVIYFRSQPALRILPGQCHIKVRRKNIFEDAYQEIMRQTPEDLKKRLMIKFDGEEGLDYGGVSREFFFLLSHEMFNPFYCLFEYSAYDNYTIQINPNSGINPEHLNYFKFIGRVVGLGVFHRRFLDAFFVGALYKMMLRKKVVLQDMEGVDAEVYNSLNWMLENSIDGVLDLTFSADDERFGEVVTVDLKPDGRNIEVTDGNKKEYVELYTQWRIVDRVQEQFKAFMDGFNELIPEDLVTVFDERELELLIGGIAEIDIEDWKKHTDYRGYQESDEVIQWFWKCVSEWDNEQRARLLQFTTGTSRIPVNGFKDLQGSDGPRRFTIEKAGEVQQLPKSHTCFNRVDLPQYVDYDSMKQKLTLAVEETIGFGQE
A PPxY peptide based on a yeast vesicular snare protein (Sna4) containing the PPxY motif was designed, synthesized, and labeled with fluorescein at the N-terminus. An assay utilizing Uba1 (E1 ubiquitin (Ub)-activating enzyme), UbcH7 (E2 Ub-conjugating enzyme) and Rsp5 ([…] E3 Ub-ligase), which lacked the C2 domain to simplify in vitro screening, in the presence of adenosine triphosphate (ATP) and Ub was performed. Fluorescence polarization (FP) was recorded to monitor ubiquitination of the peptide. […] Ubiquitination of the PPxY peptide was confirmed by SDS-PAGE. […] No fluorescence polarization occurred in the absence of UbcH7, Rsp5, Ub, or ATP.

## NC(=O)CI [Iodoacetamide, iodoacetamide]
[1]
  rate of peptide ubiquitination (initial slope): decreasing the rate of peptide ubiquitination

## NKQSLVESPPPY [PPxY peptide, peptide mimicking residues 128-138 of yeast Sna4 with PPPY motif, fluorescein labeled on the N-terminus]
[2]
  fluorescence polarization (ubiquitination of the peptide): increase in fluorescence polarization
